The target in this assay is T1, Inositol-pentakisphosphate 2-kinase (Mouse-ear cress, UniProt Q93YN9).
T1 sequence (Q93YN9 whole entry): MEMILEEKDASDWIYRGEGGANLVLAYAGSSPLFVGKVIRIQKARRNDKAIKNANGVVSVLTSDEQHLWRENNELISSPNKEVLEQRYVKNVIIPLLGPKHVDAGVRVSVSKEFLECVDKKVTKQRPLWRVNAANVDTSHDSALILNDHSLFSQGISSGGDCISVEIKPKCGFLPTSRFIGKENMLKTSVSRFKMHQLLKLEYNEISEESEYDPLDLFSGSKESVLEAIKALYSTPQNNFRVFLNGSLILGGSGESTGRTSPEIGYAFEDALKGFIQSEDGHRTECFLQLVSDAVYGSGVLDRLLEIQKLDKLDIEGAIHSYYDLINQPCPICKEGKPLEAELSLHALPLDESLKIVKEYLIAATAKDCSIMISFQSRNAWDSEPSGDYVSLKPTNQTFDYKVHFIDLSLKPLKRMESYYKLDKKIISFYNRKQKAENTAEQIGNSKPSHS
Briefly: Isothermal Titration Calorimetry (ITC). The settings on record: pH 7.5; 25 °C. On the procedure:
Experiments were performed on a MicroCal iTC200 titration calorimeter (GE Healthcare). Wild-type IPK1 was purified and dialyzed into ITC buffer containing 50 mM HEPES (pH 7.5), 6 mM MgCl2, 150 mM NaCl, and 1 mM tris(2-carboxyethyl)phosphine (pH 7.0). After protein dialysis was complete, dialysis buffer was used to dissolve the ligands, IP, and AMP-PNP (Jena Bioscience). Titration experiments were performed at 25 °C with 100 uM IPK1 and1mM AMP-PNP in the cell and 1-2 mM IP in the syringe to ensure a final IP:IPK1 molar ratio of at least 2:1. Titration experiments were performed at least twice for each IP, and one set was chosen to represent data.

What is called Kd is the concentration at which binding is half-saturated. The low end stands for higher affinity, the high end for lower affinity.

`O=P(O)(O)O[C@H]1[C@H](OP(=O)(O)O)[C@@H](OP(=O)(O)O)[C@@H](O)[C@@H](O)[C@@H]1OP(=O)(O)O` [3,4,5,6-Inositol tetrakisphosphate (3,4,5,6-IP4)] displayed an equilibrium dissociation constant (Kd) of 7.52 µM.
For `O=P(O)(O)O[C@@H]1[C@@H](OP(=O)(O)O)[C@H](OP(=O)(O)O)[C@@H](O)[C@@H](O)[C@H]1OP(=O)(O)O` [1,4,5,6-Inositol tetrakisphosphate (1,4,5,6-IP4)], binding was characterised by a dissociation constant (Kd) of 8.2 µM.
The molecule `O=P(O)(O)O[C@@H]1[C@@H](OP(=O)(O)O)[C@H](OP(=O)(O)O)[C@H](O)[C@H](OP(=O)(O)O)[C@H]1OP(=O)(O)O` [Inositol 1,3,4,5,6-pentakisphosphate (IP5)] gave a Kd of 0.6 µM.
Take `O=P(O)(O)O[C@@H]1[C@@H](O)[C@H](OP(=O)(O)O)[C@@H](OP(=O)(O)O)[C@@H](O)[C@H]1OP(=O)(O)O` [1,3,4,6-Inositol tetrakisphosphate (1,3,4,6-IP4)]: binding was characterised by a dissociation constant (Kd) of 26.9 µM.
In the case of `O=P(O)(O)O[C@H]1[C@H](O)[C@@H](OP(=O)(O)O)[C@H](OP(=O)(O)O)[C@@H](OP(=O)(O)O)[C@H]1O` [1,3,4,5-Inositol tetrakisphosphate (1,3,4,5-IP4)], binding was put at a Kd of 18.2 µM.

These data come from BindingDB's records for doi:10.1074/jbc.M113.487777 (McGill University, 2013).
